Results reported in patent US7053118B1, “Lactone compounds and methods of use” (Harbor Branch Oceanographic Institution, Inc., priority 2003, dated 2006).

Experiments:
Assay type in all cases: cell-based
[1] = system: P388 murine leukemia cell line; test: Antiproliferative MTT assay, P388 cell line; conditions: P-388 cells, 48-h exposure
Protocol: (§1) Extracts and compounds were analyzed as to their effects on proliferation of A549 human adenocarcinoma, PANC-1 human pancreatic and P388 murine leukemia cell lines. P388 cells were obtained from Dr. R. Camalier, National Cancer Institute, Bethesda, Md., and A549 and PANC-1 cells were obtained from American Type Culture Collection, Rockville, Md. All cell lines were maintained in Roswell Park Memorial Institute (RPMI) medium 1640 supplemented with 10% fetal bovine serum. All cell lines are cultured in plastic tissue culture flasks and kept in an incubator at 37° C. in humidified air containing 5% CO2. Prior to testing, antibiotic-free stock cultures of each of the cell lines were subcultured to 10^6 cells/ml by dilution in fresh growth medium at 2 to 3 day intervals.
(§2) To assess the antiproliferative effects of extracts and compounds against the P388 cell line, 200 μl cultures (96-well tissue culture plates, Nunc, Denmark) are established at 1×10^5 cells/ml in drug-free medium or medium containing the test agent at 10.0, 1.0, 0.10 and 0.010 μg/ml. Solvent for all dilutions ethanol. All experimental cultures are initiated in medium containing Gentamycin sulfate (50 μg/ml; Schering Corporation, Kenilworth, N.J.). […]

[2] = system: A549 human adenocarcinoma cell line; test: Antiproliferative MTT assay, A549 cell line; conditions: A549 cells, additional 48 hr exposure prior to MTT addition
Protocol: as §1
as §2, with “ethanol.” for “ethanol. All experimental cultures are initiated in medium containing Gentamycin sulfate (50 μg/ml; Schering Corporation, Kenilworth, N.J.).”
(§3) Similar procedures are utilized for A549 and PANC-1 cells which require an additional 48 hr exposure prior to MTT addition. Results are expressed as percent inhibition compared to the negative (no drug) control. […]

[3] = system: PANC-1 human pancreatic cell line; test: Antiproliferative MTT assay, PANC-1 cell line; conditions: PANC-1 cells, additional 48 hr exposure prior to MTT addition
Protocol: as §1
as §2, with “ethanol.” for “ethanol. All experimental cultures are initiated in medium containing Gentamycin sulfate (50 μg/ml; Schering Corporation, Kenilworth, N.J.).”
as §3

Activity (IC50 μg/ml) [1]: 1.09 µg/mL
Activity (IC50 μg/ml) [2]: 5.0 µg/mL
Activity (IC50 μg/ml) [3]: 3.78 µg/mL
Structure (SMILES): C=C1C[C@@](C)(/C=C/C=C/CCCCCCCC)OC1=O [plakolide A]
